Entries after “also recorded” stand apart in the source; their conditions may differ. Read-outs that look alike come from different tables or passages of the source.
Experiments:
[1] = HLM stability (Low Activity); format: in vitro ADME; conditions: both sexes, human, liver microsomes, pH 7.4, Condition 1 (Low Activity), 0.42 mg protein/mL
Description: For some of the compounds, stability was tested under two microsomal incubation conditions, one with normal enzymatic activity (low activity) and one with higher enzymatic loading, longer incubation time, and lower compound concentration (high activity) intended to increase metabolic lability.
HLM Stability (Low Activity). Pooled HLM from adult male and female donors (XenoTech H0630) were used. Microsomal incubations were carried out in 96-well plates in 5 aliquots of 40 μL, each (one for each time point). Liver microsomal incubation medium consisted of PBS (100 mM, pH 7.4), MgCl2 (3.3 mM), NADPH (3 mM), glucose-6-phosphate (5.3 mM), and glucose-6-phosphate dehydrogenase (0.67 units/mL), with 0.42 mg of liver microsomal protein per mL. Control incubations were performed by replacing the NADPH-cofactor system with PBS. Test compounds (2 μM, final solvent concentration 1.6%) were incubated with microsomes at 37° C., shaking at 100 rpm. Incubations were performed in duplicate. Five time points over 40 minutes were analyzed. The reactions were stopped by adding 12 volumes of 90% acetonitrile-water to incubation aliquots, followed by protein sedimentation by centrifugation at 5500 rpm for 3 minutes. Supernatants were analyzed for parent compound remaining using a fit-for-purpose liquid chromatography-tandem mass spectrometry (LC-MS/MS) method, with authentic samples of each analyte used for identity confirmation.
Data Analysis. The elimination constant (kel), half-life (t1/2) and intrinsic clearance (Clint) were determined in a plot of […] versus time, using linear regression analysis.

[2] = Oral bioavailability in mice, Method A; format: in vivo; conditions: CD-1 mice; for F: 10 mg/kg; for half-life / Cmax / AUC(0-inf): male, mouse
Description: Animals. Male CD-1 mice were used in these studies Animals were randomly assigned to treatment groups and were fasted for 4 h before dosing.
Drugs. Test compounds were dissolved in normal saline (ketamine) or de-ionized water (other compounds) and administered intravenously (iv) or orally (po) at a dose of 10 mg/kg (calculated based on freebase) and at a volume of 5 mL/kg body weight. Compounds were tested as the racemates (indicated by “rac” nomenclature) or pure enantiomers (indicated by “R” or “S” nomenclature).
Sample Collection and Bioanalysis. Blood samples were collected under 2,2,2-tribromoethanol anesthesia (150 mg/kg, ip) from the orbital sinus at 0.083, 0.25, 0.5, 1, 2, 4, 8 and 24 h (4 animals per time point) into microcontainers containing K2EDTA Immediately after collection of blood, mice were euthanized by cervical dislocation and brain samples were collected at the same time points. All samples were immediately processed, flash-frozen, and stored at −70° C. until subsequent analysis. Plasma samples were separated by centrifugation of whole blood and aliquots (50 μL) were mixed with 200 μL of internal standard solution (400 ng/mL in 1:1 v/v CH3CN:MeOH). After mixing by pipetting and centrifuging for 4 min at 6000 rpm, 0.5 μL of each supernatant was analyzed for drug using a fit-for-purpose liquid chromatography-tandem mass spectrometry (LC-MS/MS) method, with authentic samples of each analyte used for calibration and identification. Brain samples (weight 100 mg±1 mg) were dispersed in 500 μL, of internal standard solution (400 ng/mL in 4:1 v/v MeOH:water) using zirconium oxide beads (115 mg±5 mg) in The Bullet Blender® homogenizer for 30 s at speed 8. After homogenization, the samples were centrifuged for 4 min at 14,000 rpm and 0.5 μL of each supernatant was analyzed for drug using a fit-for-purpose LC-MS/MS method, with authentic samples of each analyte used for calibration and identification.
Data Analysis. The drug concentrations of samples below the lower limit of quantitation (LLOQ) were designated as zero. Pharmacokinetic data analysis was performed using noncompartmental, bolus injection or extravascular input analysis models in WinNonlin 5.2 (PharSight). Data points below LLOQ were presented as missing to improve validity of t112 calculations.

[3] = system: mice (forced swim test); assay: Forced swim test in mice, 30-minute pre-treatment; format: in vivo, Swiss Webster mice; conditions: s.c., 30 minutes before test, relative to vehicle
Description: Animals. Male Swiss Webster mice, aged 4-5 weeks (body weight 25-30 g, Envigo) were used in the experiments Animals were housed in groups of 4-5 under controlled temperatures and 12-hour light/dark cycles, with ad libitum food (Teklad 7001 rodent diet) and water. These studies were carried out in strict accordance with the recommendations in the Guide for the Care and Use of Laboratory Animals of the National Institutes of Health. All efforts were made to minimize suffering.
Drugs and Drug Administration. Imipramine hydrochloride was administered intraperitoneally (i.p.) at a dose of 30 mg/kg. Other compounds were tested as the racemates (indicated by “rac” nomenclature) and were administered subcutaneously (s.c.) as the hydrochloride salts. Normal saline was used as the vehicle and all compounds were administered at a volume of 10 mL/kg, 30 minutes before behavioral testing.
Forced Swim Test (FST). Group size was n=10 per treatment Animals were acclimated to the testing room 30 minutes prior to behavioral testing. Mice were placed individually in a cylinder of water measuring 5 inches wide by 10 inches tall and maintained at 24-25° C. The activity of each mouse was recorded for 6 minutes using Noldus Ethovision tracking software, with periods of inactivity being automatically quantified.
Statistical Analysis. The data points shown are the mean±standard error of the mean (SEM). Analysis was performed using GraphPad Prism 6. Indicated statistical comparisons represent the results of unpaired, two-tailed t tests relative to vehicle (not corrected for multiple comparisons).

[4] = HLM stability (High Activity); format: in vitro ADME; conditions: both sexes, human, liver microsomes, pH 7.4, Condition 2 (High Activity), 1.0 mg protein/mL
Outline: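 Pooled male and female human liver microsomes, 1.0 mg protein/mL, in 100 mM PBS pH 7.4 with NADPH-regenerating system; compound 1 μM at 37° C, five time points over 60 min. Parent remaining by LC-MS/MS; kel, t1/2 and Clint from linear regression of ln(AUC) versus time.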

[5] = molecular target: MK-801 binding site of the N-methyl-D-aspartate receptor (NMDAR); assay: NMDAR radioligand binding with [3H]MK-801, Method A; set-up: species or system Wistar rat; conditions: MK-801 site, Method A, Wistar rat brain (minus cerebellum), 5.0 nM [3H]MK-801; read-out: NMDAR Ki ± SEM
Description: Radioligand Binding—Method A. Affinity of the test compounds for NMDAR was determined in radioligand binding experiments with [^3H]MK-801 by Eurofins Panlabs, Inc., using methods adapted from the literature (Javitt et al. 1987; Reynolds et al. 1989) and under the conditions described in Table 12.

[6] = molecular target: T1, dopamine transporter (DAT) (Homo sapiens, UniProt Q01959); assay: Fluorescent substrate uptake inhibition, DAT; format: cell-based
T1 construct: expressed in transfected cells; host or cells: CHO (uptake)
T1 sequence (Q01959 whole entry, species assumed): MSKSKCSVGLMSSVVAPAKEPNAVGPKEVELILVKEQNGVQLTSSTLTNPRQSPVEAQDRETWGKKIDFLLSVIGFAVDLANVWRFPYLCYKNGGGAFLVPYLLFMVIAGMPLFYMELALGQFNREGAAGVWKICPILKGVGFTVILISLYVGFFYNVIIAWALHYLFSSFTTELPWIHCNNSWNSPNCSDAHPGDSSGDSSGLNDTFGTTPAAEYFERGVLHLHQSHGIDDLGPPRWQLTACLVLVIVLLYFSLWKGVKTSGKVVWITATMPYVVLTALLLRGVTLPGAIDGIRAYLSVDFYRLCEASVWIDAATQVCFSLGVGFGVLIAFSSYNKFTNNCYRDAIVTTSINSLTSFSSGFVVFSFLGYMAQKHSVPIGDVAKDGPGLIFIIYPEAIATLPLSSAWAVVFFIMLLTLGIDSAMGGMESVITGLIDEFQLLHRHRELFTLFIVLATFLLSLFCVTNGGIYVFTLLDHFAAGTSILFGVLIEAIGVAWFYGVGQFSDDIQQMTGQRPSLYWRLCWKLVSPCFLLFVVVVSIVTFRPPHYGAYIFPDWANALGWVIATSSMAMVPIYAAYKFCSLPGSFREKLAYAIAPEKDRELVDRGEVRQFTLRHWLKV

[7] = molecular target: T2, vesicular monoamine transporter 2 (VMAT2) (Homo sapiens, UniProt Q05940); assay: Fluorescent substrate uptake inhibition, VMAT2; format: cell-based; conditions: 10 μM, transfected cells
T2 construct: expressed in transfected cells
T2 sequence (Q05940 whole entry, species assumed): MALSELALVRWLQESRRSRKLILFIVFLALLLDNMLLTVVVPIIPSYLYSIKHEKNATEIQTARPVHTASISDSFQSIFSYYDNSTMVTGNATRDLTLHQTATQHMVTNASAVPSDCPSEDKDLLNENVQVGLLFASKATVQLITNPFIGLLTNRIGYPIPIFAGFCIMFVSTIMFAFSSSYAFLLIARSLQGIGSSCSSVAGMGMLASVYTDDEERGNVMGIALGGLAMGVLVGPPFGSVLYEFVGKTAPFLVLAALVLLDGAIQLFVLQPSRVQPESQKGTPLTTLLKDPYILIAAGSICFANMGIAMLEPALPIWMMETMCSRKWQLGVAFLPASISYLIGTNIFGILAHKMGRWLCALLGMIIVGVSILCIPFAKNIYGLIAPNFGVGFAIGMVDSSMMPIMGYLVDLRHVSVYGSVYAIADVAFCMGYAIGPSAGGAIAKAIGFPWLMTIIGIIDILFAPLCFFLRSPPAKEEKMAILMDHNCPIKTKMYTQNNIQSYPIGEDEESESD

[8] = HLM stability (Low Activity, Alternative Method); format: in vitro ADME; conditions: both sexes, human, liver microsomes, pH 7.4, Condition 1 column, values marked *: Low Activity, 0.50 mg protein/mL
Outline: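 Pooled male and female human liver microsomes (0.50 mg/mL) in 100 mM PBS pH 7.4 with 1 mM MgCl2 and 1 mM NADPH, compound 1 μM (1.0% solvent), 37° C with shaking, six time points over 60 min. Parent remaining measured by LC-MS/MS; kel, t1/2 and Clint from linear regression of ln(AUC) versus time.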

[9] = molecular target: MK-801 binding site of the N-methyl-D-aspartate receptor (NMDAR); assay: NMDAR radioligand binding with [3H]MK-801, Method B; set-up: species or system Sprague Dawley rat; conditions: MK-801 site, Method B, male Sprague Dawley rat cortex, 5.0 nM [3H]MK-801; read-out: NMDAR Ki ± SEM
Description: Radioligand Binding—Method B. Affinity of the test compounds for NMDAR was determined in radioligand binding experiments with [^3H]MK-801 by WuXi AppTec (Hong Kong) Limited, under the conditions described in Table 13.

[10] = molecular target: T3, NET (Homo sapiens, UniProt P23975); assay: NET radioligand binding with [3H]nisoxetine
T3 construct: expressed in transfected cells; host or cells: HEK293
T3 sequence (P23975 whole entry, species assumed): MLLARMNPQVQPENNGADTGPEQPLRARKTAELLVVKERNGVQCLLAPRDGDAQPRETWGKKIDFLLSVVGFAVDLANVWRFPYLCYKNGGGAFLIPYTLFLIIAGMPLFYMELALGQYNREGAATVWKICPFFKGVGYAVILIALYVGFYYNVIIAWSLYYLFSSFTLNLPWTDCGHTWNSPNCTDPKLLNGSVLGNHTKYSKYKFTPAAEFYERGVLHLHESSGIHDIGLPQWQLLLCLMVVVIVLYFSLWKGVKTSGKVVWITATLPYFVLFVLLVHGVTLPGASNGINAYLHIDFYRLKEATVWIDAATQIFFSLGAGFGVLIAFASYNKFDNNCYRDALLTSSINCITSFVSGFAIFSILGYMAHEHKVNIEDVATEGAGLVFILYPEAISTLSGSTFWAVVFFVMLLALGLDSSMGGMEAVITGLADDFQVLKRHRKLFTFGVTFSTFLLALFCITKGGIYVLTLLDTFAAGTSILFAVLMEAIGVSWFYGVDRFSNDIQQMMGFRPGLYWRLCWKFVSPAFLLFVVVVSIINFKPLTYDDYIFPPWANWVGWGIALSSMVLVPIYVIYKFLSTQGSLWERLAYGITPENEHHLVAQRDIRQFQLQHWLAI
Description: (§1) Radioligand Binding. Affinity of the test compounds for SERT, NET, and DAT was determined in radioligand binding experiments with [^3H]imipramine, [^3]nisoxetine, and [^3H]WIN35,428, respectively, by WuXi AppTec (Hong Kong) Limited, under the conditions described in Table 15.

[11] = molecular target: T4, serotonin transporter (SERT) (Homo sapiens, UniProt P31645); assay: Fluorescent substrate uptake inhibition, SERT; format: cell-based
T4 construct: expressed in transfected cells; host or cells: HEK293
T4 sequence (P31645 whole entry, species assumed): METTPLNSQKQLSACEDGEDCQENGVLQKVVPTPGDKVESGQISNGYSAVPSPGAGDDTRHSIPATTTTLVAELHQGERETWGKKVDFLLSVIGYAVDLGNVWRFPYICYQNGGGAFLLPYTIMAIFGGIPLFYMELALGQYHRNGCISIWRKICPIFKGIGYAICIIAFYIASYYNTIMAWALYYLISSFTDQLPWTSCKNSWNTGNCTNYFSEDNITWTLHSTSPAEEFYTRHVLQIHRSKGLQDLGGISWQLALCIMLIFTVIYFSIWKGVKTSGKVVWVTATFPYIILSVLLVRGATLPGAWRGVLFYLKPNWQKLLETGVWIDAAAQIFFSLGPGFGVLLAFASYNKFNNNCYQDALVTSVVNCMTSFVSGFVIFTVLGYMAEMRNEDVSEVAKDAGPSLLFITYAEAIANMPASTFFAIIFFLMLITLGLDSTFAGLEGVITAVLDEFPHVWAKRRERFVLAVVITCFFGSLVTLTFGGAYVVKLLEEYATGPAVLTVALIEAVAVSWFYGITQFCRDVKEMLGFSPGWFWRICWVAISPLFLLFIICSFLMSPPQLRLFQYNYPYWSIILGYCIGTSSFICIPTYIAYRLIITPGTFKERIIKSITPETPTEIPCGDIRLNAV

[12] = molecular target: T5, SERT (Homo sapiens, UniProt P31645); assay: SERT radioligand binding with [3H]imipramine
T5 construct: expressed in transfected cells; host or cells: HEK293
T5 sequence (P31645 whole entry, species assumed): as above
Description: as §1

[13] = molecular target: T6, DAT (Homo sapiens, UniProt Q01959); assay: DAT radioligand binding with [3H]WIN35,428
T6 construct: expressed in transfected cells; host or cells: CHO (uptake)
T6 sequence (Q01959 whole entry, species assumed): as the sequence (Q01959 whole entry, species assumed) above
Description: as §1

[14] = molecular target: T7, norepinephrine transporter (NET) (Homo sapiens, UniProt P23975); assay: Fluorescent substrate uptake inhibition, NET; format: cell-based
T7 construct: expressed in transfected cells; host or cells: HEK293
T7 sequence (P23975 whole entry, species assumed): as the sequence (P23975 whole entry, species assumed) above

[15] = RLM stability (Low Activity); format: in vitro ADME, Sprague Dawley rats; conditions: male, Sprague Dawley, rat, liver microsomes, pH 7.4, Condition 1 (Low Activity), 0.50 mg protein/mL
Outline: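 Pooled male Sprague Dawley rat liver microsomes (0.50 mg/mL) in PBS pH 7.4 with 1 mM MgCl2 and 1 mM NADPH; compound 1 μM, 1.0% solvent, 37° C. Six time points over 60 min, parent remaining by LC-MS/MS; kel, t1/2 and Clint from linear regression of ln(AUC) versus time.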

[16] = MLM stability (Low Activity); format: in vitro ADME, CD-1 mice; conditions: male, CD-1, mouse, liver microsomes, pH 7.4, Condition 1 (Low Activity), 0.50 mg protein/mL
Outline: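 Pooled male CD-1 mouse liver microsomes (0.50 mg/mL) with 1 μM compound and 1 mM NADPH in 100 mM PBS pH 7.4 with 1 mM MgCl2, 37 °C, six time points over 60 min. Parent remaining by LC-MS/MS; kel, t1/2 and Clint from linear regression of ln(AUC) versus time.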

[17] = calculated based on brain exposure
[18] = brain, 10 mg/kg iv, read-out: t1/2 (iv)
[19] = brain, 10 mg/kg po, read-out: t1/2 (po)
[20] = plasma, 10 mg/kg iv, read-out: AUC0-inf (iv) (converted)
[21] = plasma, 10 mg/kg iv, read-out: t1/2 (iv)
[22] = plasma, 10 mg/kg po, read-out: AUC0-inf (po) (converted)
[23] = plasma, 10 mg/kg po, read-out: t1/2 (po)
[24] = plasma, absolute oral bioavailability

| Compound | half-life at 2 μM [1] | microsomal CLint at 2 μM [1] | AUC0-inf (iv) ([2]; brain, 10 mg/kg iv) | AUC0-inf (po) ([2]; brain, 10 mg/kg po) | F [2, 17] | half-life [2, 18] | Cmax ([2]; brain, 10 mg/kg po) | half-life [2, 19] | AUC(0-inf) [2, 20] | half-life [2, 21] | Cmax ([2]; plasma, 10 mg/kg po) | AUC(0-inf) [2, 22] | half-life [2, 23] | F [2, 24] | immobility time in FST [3] | half-life at 1 μM [4] | microsomal CLint at 1 μM [4] | other results |
| --- | --- | --- | --- | --- | --- | --- | --- | --- | --- | --- | --- | --- | --- | --- | --- | --- | --- | --- |
| CCNC1(c2cccc(OC)c2)CCCCC1=O (racemic) [Compound 2rac] | 4.85 h | 6 µL/min/mg | 279,000 ng*min/g | 11,800 ng*min/g | 4% | 16.1 min | 420 ng/g | 16.6 min | 1100 ng·h/mL | 17.9 min | 135 ng/mL | 62.8 ng·h/mL | 14 min | 6% | reduced time immobile; also recorded: induced antidepressant-like effects | 199 min | 3 µL/min/mg |  |
| CNC1(c2ccccc2OC)CCCCC1=O (racemic) [Compound 4rac] | 43.2 h | 1 µL/min/mg | 292,000 ng*min/g | 135,000 ng*min/g | 46% | 19.9 min | 1900 ng/g | 45.9 min | 1650 ng·h/mL | 20.6 min | 958 ng/mL | 850 ng·h/mL | 42.6 min | 51% | did not have effects | 819 min | 1 µL/min/mg | Ki [5]: 35 µM |
| CC(C)N[C@]1(c2ccccc2)CCCCC1=O [Compound 28S, (S)-2-(isopropylamino)-2-phenylcyclohexan-1-one] |  |  |  |  |  |  |  |  |  |  |  |  |  |  |  |  |  | IC50 [6]: 1.3 µM; inhibition at 10 µM ([6]; 10 μM, CHO cells expressing DAT): 58%; inhibitory activity at DAT ([6]; in words): significant inhibitory activity at DAT; inhibition at 10 µM [7]: -32.7%; half-life at 1 μM [8]: 76.6 min; microsomal CLint at 1 μM [8]: 18.1 µL/min/mg; Ki [9]: 3 µM; Ki [10]: 13.5 µM; IC50 [11]: 8.5 µM; inhibition at 10 µM ([11]; 10 μM, HEK293 cells expressing SERT): 22%; Ki [12]: 12.3 µM; Ki [13]: 6 µM; IC50 [14]: 4.7 µM; inhibition at 10 µM ([14]; 10 μM, HEK293 cells expressing NET): 48.7%; half-life at 1 μM [15]: 18.9 min; microsomal CLint at 1 μM [15]: 73.4 µL/min/mg; half-life at 1 μM [16]: 14.8 min; microsomal CLint at 1 μM [16]: 94 µL/min/mg |

From US11344510B2, “Arylcyclohexylamine derivatives and their use in the treatment of psychiatric disorders” (Gilgamesh Pharmaceuticals, Inc., priority 2019, dated 2022)
